This note sets out measurements from ChEMBL document CHEMBL6134909 (Eur J Med Chem, 2025).

A short description of data set [1]: Metabolic stability in human plasma at 2 uM measured after 60 mins by LC-MS/MS analysis. The format is ADME, cell-free. Particulars: 1 h.
Data set [2] is described as follows: Metabolic stability in BALB/c mouse liver microsomes assessed as compound remaining at 2 to 10 uM measured after 60 mins in presence of furafylline/NADPH by LC-MS/MS analysis. Particulars: with furafylline, dose 2-10 µM, read-out: Stability. The format is ADME, Microsome. On the technique in general: Microsomes from liver hold many membrane-bound enzymes, among them those of drug oxidation.

Data set [3] is described as follows: Metabolic stability in human liver microsomes assessed as compound remaining at 2 to 10 uM measured after 60 mins in presence of NADPH by LC-MS/MS analysis. The settings on record: dose 2-10 µM, read-out: Stability. In kind it is ADME, Microsome.
Data set [4] in a line: Metabolic stability in human liver microsomes assessed as compound remaining at 2 to 10 uM measured after 60 mins in absence of NADPH by LC-MS/MS analysis. In kind it is ADME, Microsome. The settings on record: dose 2-10 µM, read-out: Stability.
Data set [5] is described as follows: Metabolic stability in BALB/c mouse liver microsomes assessed as compound remaining at 2 to 10 uM measured after 60 mins in absence of NADPH by LC-MS/MS analysis. The format is ADME, Microsome. The settings on record: dose 2-10 µM, read-out: Stability.
Data set [6] in a line: Metabolic stability in human liver microsomes assessed as compound remaining at 2 to 10 uM measured after 60 mins in presence of furafylline/NADPH by LC-MS/MS analysis. The settings on record: with furafylline, dose 2-10 µM, read-out: Stability. The format is ADME, Microsome.
Data set [7] concerns Influenza A virus. Nature of the data set: Anti-viral activity against Influenza A virus H7N1 pseudotype infected in human A549 cells assessed as inhibition of viral entry incubated for 48 hrs by Neolite Reporter Gene Assay. The settings on record: H7N1, A549, 48 h. In kind it is functional, organism-based.
Data set [8] can be described thus: Metabolic stability in human liver microsomes assessed as compound remaining at 2 to 10 uM measured after 60 mins in presence of sulfaphenazole/NADPH by LC-MS/MS analysis. In kind it is ADME, Microsome. Particulars: with sulfaphenazole, dose 2-10 µM, read-out: Stability.
A short description of data set [9]: Metabolic stability in mouse plasma at 2 uM measured after 60 mins by LC-MS/MS analysis. The format is ADME, cell-free. Particulars: 1 h.
Data set [10] in a line: Cytotoxicity against human A549 cells incubated for 48 hrs by CellTiter-Glo Luminescent Cell Viability Assay. The format is toxicity, cell-based.
A short description of data set [11]: Metabolic stability in BALB/c mouse liver microsomes assessed as compound remaining at 2 to 10 uM measured after 60 mins in presence of sulfaphenazole/NADPH by LC-MS/MS analysis. The format is ADME, Microsome. Particulars: with sulfaphenazole, dose 2-10 µM, read-out: Stability.
Data set [12] can be described thus: Metabolic stability in human liver microsomes assessed as compound remaining at 2 to 10 uM measured after 60 mins in presence of quinidine/NADPH by LC-MS/MS analysis. In kind it is ADME, Microsome. Particulars: with quinidine, dose 2-10 µM, read-out: Stability.
The nature of data set [13]: Metabolic stability in BALB/c mouse liver microsomes assessed as compound remaining at 2 to 10 uM measured after 60 mins in presence of quinidine/NADPH by LC-MS/MS analysis. In kind it is ADME, Microsome. Particulars: with quinidine, dose 2-10 µM, read-out: Stability.
Data set [14] can be described thus: Metabolic stability in BALB/c mouse liver microsomes assessed as compound remaining at 2 to 10 uM measured after 60 mins in presence of NADPH by LC-MS/MS analysis. The settings on record: dose 2-10 µM, read-out: Stability. In kind it is ADME, Microsome.
Data set [15] in a line: Metabolic stability in human liver microsomes assessed as compound remaining at 2 to 10 uM measured after 60 mins in presence of ketoconazole/NADPH by LC-MS/MS analysis. The format is ADME, Microsome. The settings on record: with ketoconazole, dose 2-10 µM, read-out: Stability.
Data set [16] can be described thus: Metabolic stability in BALB/c mouse liver microsomes assessed as compound remaining at 2 to 10 uM measured after 60 mins in presence of ketoconazole/NADPH by LC-MS/MS analysis. In kind it is ADME, Microsome. The settings on record: with ketoconazole, dose 2-10 µM, read-out: Stability.
Data set [17] in a line: AUC (infinity) in CD1 mouse at 25 mg/kg, ip. In kind it is ADME, organism-based. Particulars: in vivo.
The subject of data set [18] is Influenza A virus. Put plainly: Anti-viral activity against wild-type Influenza A virus H7N1 pseudotype infected in human A549 cells assessed as inhibition of viral entry incubated for 48 hrs by Neolite Reporter Gene Assay. The format is functional, organism-based. The settings on record: H7N1, A549, 48 h. On the technique in general: A reporter such as luciferase makes a cellular process visible.

Data set [19] can be described thus: Tmax in CD1 mouse at 25 mg/kg, ip. In kind it is ADME, organism-based. The settings on record: in vivo.
The nature of data set [20]: Half life in CD1 mouse at 25 mg/kg, ip. In kind it is ADME, organism-based. The settings on record: in vivo.
Data set [21] can be described thus: Clearance in CD1 mouse at 25 mg/kg, ip. The format is ADME, organism-based. The settings on record: in vivo.
A short description of data set [22]: MRT (infinity) in CD1 mouse at 25 mg/kg, ip. In kind it is ADME, organism-based. Particulars: in vivo.
Data set [23] is described as follows: Cmax in CD1 mouse at 25 mg/kg, ip. The format is ADME, organism-based. Particulars: in vivo.
Data set [24] in a line: Apparent volume of distribution in CD1 mouse at 25 mg/kg, ip. The format is ADME, organism-based. The settings on record: in vivo.

Bounds are passed on as bounds.

By EC50 is commonly meant the concentration at which the effect is half-maximal. By CC50 is commonly meant the concentration giving 50% cytotoxicity. In general, AUC(0-inf) refers to the area under the concentration-time curve extrapolated to infinity. Read a high AUC(0-inf) as more exposure. By Tmax is commonly meant the time from dosing to the highest level. The term half-life denotes the time in which the quantity being followed falls by half. Read a high half-life as slow decline. One may read the CL/F as the apparent clearance, not corrected for the fraction that reaches the circulation. The term MRT inf denotes the average time that molecules of a dose stay in the body. By Cmax is commonly meant the peak of the concentration-time curve.

For the compound `COc1ccc(-c2nc3ncccn3c2NC2CCCCC2)cc1`, the Stability result in data set [1] and in [9] was “Stable” in each case. Besides, the remaining at 1 h, up to 10 µM in [2] was found to be 12.2%; in data set [3], 21.1%; in data set [4], 113%; in data set [5] it was 113%; in [6], 71%; in data set [8], 32%. Moreover, the remaining at 1 h, up to 10 µM in data set [11] turned out to be 4.5%; in data set [12], 36.5%; in data set [13], 4.2%; in data set [14], 2.3%; in data set [15] it was 65.1%; in [16], 39.4%. In [7], the concentration for a half-maximal effect (EC50) was determined as 0.08 µM. Also, in [10], the CC50 at 48 h is more than 1250 µM.
For `Oc1ccc(-c2nc3ncccn3c2NC2CCCCC2)c(F)c1`, the Stability result in data set [1] and in data set [9] was “Stable” each time. In data set [17], this compound showed an AUC(0-inf) of 3660 ng·h/mL. Besides, the remaining at 1 h, up to 10 µM in data set [3] stood at 68.9%; in data set [4], 115%; in data set [5], 101%; in [14], 72.7%. The EC50 in data set [18] stood at 0.11 µM; in data set [7], 0.09 µM. In addition, the Tmax in data set [19] came out at 0.083 h. This compound also registered a CC50 at 48 h in data set [10] of more than 100 µM. In addition, the half-life in data set [20] is 3.61 h. For the same compound, the CL/F in [21] is 114 mL/min/kg. Besides, the MRT inf in data set [22] turned out to be 0.842 h. In data set [23], this compound registered a Cmax of 14500 ng/mL. In addition, the Vz in data set [24] was 35.639 L/kg.
Take `Fc1ccc(-c2nc3ncccn3c2NC2CCCCC2)cc1F`: the Stability result in data set [1] and in data set [9] was “Stable” each time. Also, the remaining at 1 h, up to 10 µM is 7.3% in data set [2]; 2.2% in data set [3]; 113% in data set [4]; 114% in data set [5]; 19.7% in data set [6]; 7.2% in data set [8]. Also, the remaining at 1 h, up to 10 µM in data set [11] stood at 5.5%; in data set [12], 10.9%; in data set [13] it was 5.3%; in data set [14], 2.7%; in data set [15], 48.8%; in [16], 51.7%. Further, the EC50 in [7] amounted to 0.07 µM. The CC50 at 48 h in data set [10] was more than 100 µM.
In the case of `Fc1cc(OCc2ccc(C(F)(F)F)cc2)ccc1-c1nc2ncccn2c1NC1CCCCC1`, the Stability entry in data set [1] and in [9] was “Stable” each time. The same compound displayed a total exposure AUC(0-inf) in [17] of 33900 ng·h/mL. Moreover, the remaining at 1 h, up to 10 µM in [3] was 36%; in data set [4], 105%; in data set [5], 104%; in data set [14] it was 60.5%. Further, in data set [19], the time to peak (Tmax) amounted to 2.67 h. The EC50 in data set [7] worked out at 0.47 µM. Moreover, in data set [10], the CC50 at 48 h was more than 100 µM. Further, the half-life in [20] is 3.82 h. In addition, in data set [21], the apparent clearance CL/F is 12.8 mL/min/kg. The compound also yielded a mean residence time MRT inf in data set [22] of 6.25 h. The Cmax in data set [23] was determined as 2930 ng/mL. Moreover, the Vz in data set [24] came out at 4.226 L/kg.
